Measurements taken from the supplement of paper PMC10307832.

Assays:
Experiment in all cases: relative viability (nuclei count vs DMSO), 5 days (fraction); higher = more cells survive
[1] = compound: Cc1nc(NC(=O)N2CCC[C@H]2C(N)=O)sc1-c1ccnc(C(C)(C)C(F)(F)F)c1 [Alpelisib] + COc1cccc2cc(-c3nc([C@H]4CC[C@H](C(=O)O)CC4)n4ncnc(N)c34)[nH]c12 [OSI-027] (partner 0.5 µM)
How it was run: (§1)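 Cells from lung cancer lines were seeded into 1536-well plates and, one day later, dosed by pin tool. Treatments were either a single drug or a fixed dose of an anchor drug with five library-drug doses (not always all listed) in √10 steps. After 5 days, nuclei were stained in a one-step fixation (final 0.05% Triton X-100, 1% formaldehyde, 1 ug/ml Hoechst) and counted on 4× images, and relative viability is the treated-to-vehicle nuclei ratio, as the median of duplicate plates.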

[2] = compound: COc1cccc2cc(-c3nc([C@H]4CC[C@H](C(=O)O)CC4)n4ncnc(N)c34)[nH]c12 [OSI-027] + CC(=O)Nc1cccc(-n2c(=O)n(C3CC3)c(=O)c3c(Nc4ccc(I)cc4F)n(C)c(=O)c(C)c32)c1 [Trametinib] (partner 0.02 µM)
How it was run: as §1

[3] = compound: COc1cccc2cc(-c3nc([C@H]4CC[C@H](C(=O)O)CC4)n4ncnc(N)c34)[nH]c12 [OSI-027] + C[C@@H](Oc1cc(-c2cnn(C3CCNCC3)c2)cnc1N)c1c(Cl)ccc(F)c1Cl [Crizotinib] (partner 1 µM)
How it was run: as §1

[4] = compound: CCCS(=O)(=O)Nc1ccc(F)c(C(=O)c2c[nH]c3ncc(-c4ccc(Cl)cc4)cc23)c1F [Vemurafenib] + CS(=O)(=O)N1CCN(Cc2cc3nc(-c4cccc5[nH]ncc45)nc(N4CCOCC4)c3s2)CC1 [Pictilisib] (partner 1 µM)
How it was run: as §1

Cell Line | relative viability ([1]; first compound 0.04 µM) | relative viability ([1]; first compound 0.1265 µM) | relative viability ([1]; first compound 0.4 µM) | relative viability ([1]; first compound 1.265 µM) | relative viability ([1]; first compound 4 µM) | relative viability ([2]; first compound 0.01 µM) | relative viability ([2]; first compound 0.03162 µM) | relative viability ([2]; first compound 0.1 µM) | relative viability ([2]; first compound 0.3162 µM) | relative viability ([2]; first compound 1 µM) | relative viability ([3]; first compound 0.01 µM) | relative viability ([3]; first compound 0.03162 µM) | relative viability ([3]; first compound 0.1 µM) | relative viability ([3]; first compound 0.3162 µM) | relative viability ([3]; first compound 1 µM) | relative viability ([4]; first compound 0.03162 µM) | relative viability ([4]; first compound 0.1 µM) | relative viability ([4]; first compound 0.3162 µM) | relative viability ([4]; first compound 1 µM)
201T | 0.811 | 0.566 | 0.661 | 0.471 | 0.402 | 0.742 | 0.716 | 0.717 | 0.717 | 0.674 | 1.05 | 1.11 | 1.08 | 1.03 | 0.847 | 0.651 | 0.67 | 0.702 | 0.677
A549 |  |  |  |  |  |  |  |  |  |  | 0.782 | 0.711 | 0.704 | 0.45 | 0.167 | 0.532 | 0.43 | 0.607 | 0.453
A-427 | 0.509 | 0.411 | 0.456 | 0.351 | 0.308 | 0.721 | 0.747 | 0.574 | 0.437 | 0.329 | 0.91 | 0.821 | 0.866 | 0.673 | 0.374 | 0.751 | 0.754 | 0.564 | 0.738
ABC-1 | 0.475 | 0.347 | 0.418 | 0.283 | 0.356 |  |  |  |  |  | 1.23 | 0.881 | 1.1 | 0.957 | 0.47 | 0.751 | 0.536 | 0.658 | 0.753
BEN | 0.295 | 0.299 | 0.276 | 0.315 | 0.245 | 0.9 | 0.787 | 0.709 | 0.527 | 0.505 | 0.921 | 0.545 | 0.612 | 0.34 | 0.393 | 0.529 | 0.593 | 0.358 | 0.431
CAL-12T | 0.67 | 0.449 | 0.823 | 0.411 | 0.403 | 0.315 | 0.334 | 0.336 | 0.235 | 0.242 | 0.567 | 0.568 | 0.62 | 0.718 | 0.487 | 0.407 |  |  | 0.406
COR-L23 | 0.81 | 0.713 | 0.938 | 0.566 | 0.492 | 0.571 | 0.639 | 0.525 | 0.485 | 0.254 | 0.688 | 0.549 | 0.674 | 0.985 | 0.4 | 0.684 | 0.615 | 0.598 | 0.544
COR-L 105 | 0.715 | 0.567 | 0.846 | 0.527 | 0.513 | 0.406 | 0.396 | 0.394 | 0.376 | 0.459 | 0.754 | 0.741 | 0.766 | 0.894 | 0.415 | 0.467 |  | 0.406 | 0.368
Calu-6 |  |  |  |  |  |  |  |  |  |  | 0.806 | 0.726 | 0.765 | 0.626 | 0.625 | 0.888 | 0.902 | 0.741 | 0.822
